In patent publication US4105659A, “1,2,3,4,5,6-Hexahydro-2,6-methano-3-benzazocines” (Sterling Drug Inc., priority 1964, dated 1978):
Converted amounts (≈) assume the structure as drawn.

Experiments:
[1] = Solubility, pH of solution and precipitation on pH adjustment or dilution; type: physicochemical
Description: A. A mixture of 8.7 g. of racemic cis 1,2,3,4,5,6-hexahydro-6,11-dimethyl-8-hydroxy-2,6-methano-3-benzazocine (which is also known as racemic cis 2'-hydroxy-5,9-dimethyl-6,7-benzomorphan), 6.0 g of 1-bromo-3-methyl-2-butene, 5.0 g. of sodium bicarbonate, and 125 ml. of N,N-dimethylformamide was stirred and refluxed for approximately 41/2 hours. The reaction mixture was then filtered, and the solid on the filter was washed with ethanol. The filtrate and the wash liquor were combined, concentrated under reduced pressure, and then extracted with chloroform. The chloroform extract was concentrated under reduced pressure to yield a syrup which weighed 15.8 g. This syrup was dissolved in 120 ml. of diethyl ether and the resulting solution was filtered to remove approximately one-half gram of a brown amorphous solid. The filtrate was extracted with a mixture of 5 ml. of concentrated hydrochloric acid and 20 ml. of water. To the extract there was added 5 ml. of concentrated ammonium hydroxide solution and ice. A pale tan syrup separated from solution and after stirring, this syrup solidified. The resulting pale tan solid was collected and dried; it weighed 10.6 g. After two recrystallizations from a mixture of methyl alcohol and water, with charcoaling, this solid weighed 8.2 g. and melted at 145°-147° C. The product thus obtained was racemic cis 1,2,3,4,5,6-hexahydro-3-(3-methyl-2-butenyl)-6,11-dimethyl-8-hydroxy-2,6-methano-3-benzazocine (Formula II: Y = --CH2 --CH=C(CH3)2; R^3 = --H), having the molecular formula C19 H27 NO. This product was soluble in a mixture of 0.35 ml. of N/2 hydrochloric acid and 0.15 ml. of water to the extent of 10 percent, the pH of the 1 percent solution being 2.80; and when the pH of the 1 percent solution was gradually raised by addition of N/10 sodium hydroxide solution, a precipitate formed at pH 5.4. When the base was converted to the hydrochloride and was then regenerated from this salt it melted at 151°-153° C. The hydrochloride of this base melted at 245°-247° C. (dec.). and the cyclohexylsulfamate of this base melted at 163°-166° C. The base formed a grayish-yellowtannate.
The racemic trans product was converted to its hydrobromide, having the molecular formula C19 H27 NO·HBr, which was obtained as white needles which melted at 240°-241° C.
The dextro trans product was converted to its hydrochloride, having the molecular formula C19 H27 NO·HCl, which was obtained as white crystals which melted at 254°-255° C.
The levo trans product was converted to its hydrochloride, having the molecular formula C19 H27 NO·HCl, which was obtained as white crystals which melted at 254°-255° C. (dec.); this hydrochloride was soluble in water to the extent of 5 percent, the pH of a 1 percent aqueous solution being 5.7, a precipitate being formed when the 1 percent aqueous solution was adjusted to 7.0 by addition of N/10 sodium hydroxide solution.
A. A mixture of 9.25 g. of racemic cis 1,2,3,4,5,6-hexahydro-6-ethyl-11-methyl-8-hydroxy-2,6-methano-3-benzazocine, 6.0 g. of 1-bromo-3-methyl-2-butene, 125 ml. of N,N-dimethylformamide, and 5.0 g. of sodium bicarbonate was stirred and refluxed for approximately 41/2 hours. The reaction mixture was then filtered, and the solid collected on the filter was washed with ethanol. The filtrate and the wash liquor were combined and concentrated under reduced pressure. To the resulting residue there was added 50 ml. of diethyl ether, and the mixture was filtered. Approximately 0.6 g. of solid was collected on the filter, and 8.2 g. of brown solid separated from the filtrate and was collected by filtration. These two crops of solid (8.8 g.) were combined, 25 ml. of methanol was added, and the mixture was boiled. Only a small portion of the solid dissolved. This mixture was mixed with 25 ml. of water and chilled. The mixture was filtered to collect 8.3 g. of pale tan solid which melted at 156°-158° C. […]

[2] = Support of morphine addiction in stabilized morphine addicts
[3] = system: analgesic effect of meperidine hydrochloride; test: Antagonism of meperidine analgesia, modified D'Amour-Smith test; settings: Rattus norvegicus, sc, read-out: dosage of antagonist which reduced the analgesic effect of meperidine by approximately 50 per cent
[4] = system: analgesic effect of morphine sulfate; test: Antagonism of morphine analgesia, modified D'Amour-Smith test; settings: Rattus norvegicus, sc, read-out: dosage of antagonist which reduced the analgesic effect of morphine by approximately 50 per cent
[5] = Clinical analgesia in human subjects; type: in vivo
Description: In human subjects, however, the compounds of Formulas I and II are valuable and effective agents for producing analgesia when administered in the general range of about 10 to 500 mg. per 70 kg. of subject weight, the dosage depending of course on the particular compound, the mode of administration, and the like. The following clinical results which were obtained in human subjects are illustrative. For oral administration the free base was used, and for parenteral (usually intramuscular) administration an aqueous solution of the lactate salt was used; the dosages are expressed in each instance in terms of milligrams of base per 70 kilograms of body weight of the human subject.

CC(C)=CCN1CC[C@@]2(C)c3cc(O)ccc3C[C@@H]1[C@@H]2C (relative stereo) [4A (base), racemic cis 1,2,3,4,5,6-hexahydro-3-(3-methyl-2-butenyl)-6,11-dimethyl-8-hydroxy-2,6-methano-3-benzazocine]
pH of the 1 percent solution ([1]; 1 percent solution in dilute hydrochloric acid): 2.80 | pH at which a precipitate formed ([1]; 1 percent solution, addition of N/10 sodium hydroxide): 5.4 | solubility ([1]; dilute hydrochloric acid, mixture of 0.35 ml. of N/2 hydrochloric acid and 0.15 ml. of water, read-out: solubility in dilute hydrochloric acid): 100 mg/mL (≈ 350 mM) | support of morphine addiction [2]: did not support morphine addiction | ED50 [3]: 3.9 mg/kg | ED50 [4]: 9 mg/kg | analgesia in human subjects ([5]; orally, 50mg./70 kg. and 100 mg./70 kg.): effective and satisfactory analgesia | dose approximately equivalent to 10 mg. of morphine sulfate as an analgesic ([5]; parenterally in humans): ~20 mg | analgesia in human subjects ([5]; parenterally, 10 mg./70 kg. and 60 mg./70 kg.): effective and satisfactory analgesia
